Experimental data: patent US20240166626A1, “Compounds and Methods for Preventing, Treating, or Ameliorating Airway Disease” (THOMAS JEFFERSON UNIVERSITY, priority 2021, published 2024)

Target: GRK5 (Homo sapiens, UniProt P34947)
Assay: In vitro tubulin phosphorylation assay with purified GRK5
Type: biochemical
Conditions: 10 μM DFPQ, FIG. 3C
Protocol: FIGS. 3A-3D: DFPQ inhibits GRK-mediated phosphorylation of the β2AR. FIG. 3A: Representative time course of agonist promoted phosphorylation of the β2AR. […] Cells were lysed and the FLAG-β2AR was immunoprecipitated. Phosphorylation at […] and 356 was analyzed by western blot using a pSer^355/356 antibody while total β2AR was measured using a β2AR C-terminal antibody. The western blot is representative of at least 3 experiments and is quantified in FIG. 3B. FIG. 3C: […] FIG. 3D: Bar graphs represent pixel densitometry of radiolabeled tubulin at the 60 min timepoint from 4 experiments. […]® ADRB2 cells (DiscoveRx) were maintained with the AssayCompleteTM Cell Culture kit (DiscoveRx catalog #92-[…]). […] Cells were read every three minutes for 18 minutes on a PolarStar Optima plate reader (BMG) to establish peak signal. […] Luminescence was determined at room temperature (23-25° C.) on a PolarStar Optima plate reader (BMG). […] Relative assay bias was calculated from the ratio of normalized cAMP and arrestin recruitment responses. […] BRET was measured using a Tecan Infinite F500 microplate reader. […] Bound [35 S]GTPγS was collected by rapid filtration on GF/B filters, washed 4 times with 4 ml of cold GTPγS wash buffer and analyzed by liquid scintillation counting. […] Immunoprecipitated proteins were separated by SDS-PAGE and analyzed by western blot using a β2AR C-terminal tail or phospho-specific antibody. […]

Chain of GRK5 (P34947 whole entry, species assumed): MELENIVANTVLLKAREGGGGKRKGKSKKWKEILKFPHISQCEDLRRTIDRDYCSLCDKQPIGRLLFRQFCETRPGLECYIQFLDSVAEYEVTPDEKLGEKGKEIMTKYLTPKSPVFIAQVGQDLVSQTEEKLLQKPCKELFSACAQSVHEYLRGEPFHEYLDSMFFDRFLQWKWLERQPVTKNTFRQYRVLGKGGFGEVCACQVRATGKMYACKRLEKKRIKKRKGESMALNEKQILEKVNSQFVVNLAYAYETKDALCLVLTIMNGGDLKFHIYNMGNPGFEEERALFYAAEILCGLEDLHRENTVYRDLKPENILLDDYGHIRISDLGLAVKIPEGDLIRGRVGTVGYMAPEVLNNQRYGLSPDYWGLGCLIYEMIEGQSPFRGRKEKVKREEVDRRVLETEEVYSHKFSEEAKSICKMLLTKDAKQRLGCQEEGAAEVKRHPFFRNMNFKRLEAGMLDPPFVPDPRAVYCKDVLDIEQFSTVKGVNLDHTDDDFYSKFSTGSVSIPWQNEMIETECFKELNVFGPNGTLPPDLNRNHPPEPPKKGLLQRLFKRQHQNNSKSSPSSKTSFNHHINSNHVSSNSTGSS

phosphorylation of tubulin by GRK5 (60-minute time course): unaffected
GRK5 autophosphorylation: lack of an effect
Structure (SMILES): Fc1ccc(Nc2nc(NC3CCCCC3)c3ccccc3n2)cc1F [DFPQ, N^4-cyclohexyl-N^2-(3,4-difluorophenyl)quinazoline-2,4-diamine]
